In experiment [1] the test system is Caenorhabditis elegans. As to the kind of experiment: In vitro nematode test. Conditions: concentration at which reproduction is prevented, 7 days at 22°C; for minimal effective concentration: Caenorhabditis elegans, 168 h, read-out: Dosis effectiva. On the procedure: 10-^4 g Wirkstoff wurden in 1 ml Wasser oder 0,1 ml Dimethylsulfoxid (DMSO) gelöst. Diese Lösung wurde auf eine Replica-Platte gegeben. Dazu wurden 2 ml einer E-coli-Suspension gegeben, in der man 10-20 weibliche Tiere oder Larven von Caenorhabditis elegans in 0,5 ml M9 Pufferlösung gegeben hat. Die E-coli-Suspension wurde hergestellt indem man 300 ml einer Ubernachthalter eines Uracil-bedürftigen E-coli-Stammes mit 1,8 1 steriler M 9 Pufferlösung versetzte.
Der Versuchsansatz wurde 7 Tage bei 22°C inkubiert und danach ausgewertet. Es wurde bewertet inwieweit der Wirkstoff die Vermehrung beeinträchtigt und die Konzentration angegeben bei der die Vermehrung verhindert wird.

Experiment [2] has as its system Raupe (L5) der Art Spodoptera frugiperda. As to the kind of experiment: Spodoptera test (treated artificial diet discs). Type of experiment: in vivo. Particulars: Spodoptera frugiperda caterpillars (L5) on treated artificial diet; compared with the prior art; figures not given. The text has this:
(§1) • Lösungsmittel: 3 Gewichtsteile Aceton • Emulgator: 1 Gewichtsteil Alkylarylpolyglykolether
Zur Herstellung einer zweckmäßigen Wirkstoffzubereitung vermischt man 1 Gewichtsteil Wirkstoff mit der angegebenen Menge Lösungsmittel und der angegebenen Menge Emulgator und verdünnt das Konzentrat mit Wasser auf die gewünschte Konzentrationen.
Kunstfutterscheiben, die in Plastikdosen liegen, werden durch Beträufeln mit der Wirkstoffzubereitung der gewünschten Konzentration behandelt. Nach Eindringen der Lösung besetzt man die Plastikdosen mit je 1 Raupe (L5) der Art Spodoptera frugiperda, wobei je Versuchsglied 5 Wiederholungen aufgestellt werden. Nach der Verpuppung legt man die Tiere eines Versuchsglieds in eine größere Dose. Nach der gewünschten Zeit wird die Abtötung in % bestimmt. Dabei bedeutet 100 X, daß alle Tiere abgetötet wurden; 0 X bedeutet, daß keine Tiere abgetötet wurden.

In experiment [3] the test system is Larven (L3) des Meerrettichkäfers (Phaedon cochleariae). Kind of experiment: Phaedon larvae test (treated cabbage leaves). Particulars: Phaedon cochleariae larvae (L3) on treated Brassica oleracea leaves; compared with the prior art; figures not given. Format: in vivo.
Text: as §1
Zur Herstellung einer zweckmäßigen Wirkstoffzubereitung vermischt man 1 Gewichtsteil Wirkstoff mit der angegebenen Menge Lösungsmittel und der angegebenen Menge Emulgator und verdünnt das.Konzentrat mit Wasser auf die gewünschte Konzentration.
Kohlpflanzen (Brassica oleracea) werden mit der Wirkstoffzubereitung der gewünschten Konzentration behandelt. Ein Blatt der behandelten Pflanze wird in eine Plastikdose gelegt und mit Larven (L3) des Meerrettichkäfers (Phaedon cochleariae) besetzt. Nach 2 und 4 Tagen wird jeweils ein weiters Blatt von derselben Pflanze für die Nachfütterung verwendet.
Nach der gewünschten Zeit wird die Abtötung in % bestimmt. Dabei bedeutet 100 X, daß alle Käferlarven abgetötet wurden.

Experiment [4] concerns Mückenlarven (L4) (Aedes aegypti). Kind of experiment: Aedes test (larvae in aqueous preparation). Format: in vivo. Particulars: 20 Aedes aegypti larvae (L4) per glass; compared with the prior art; figures not given. The text has this:
• Löcungcmittal: 3 Gewichtsteile Aceton • Emulgator: 1 Gewichtsteil Alkylarylpolyglykolether
Zur Herstellung einer zweckmäßigen Wirkstoffzubereitung vermischt man 1 Gawichtcteil Wirkstoff mit der angegebenen Menge Löcungcmittel und der angegebenen Menge Emulgator und verdünnt das Konzentrat mit Wasser auf die gewünschte Konzentrationen.
Man füllt die wässrigen Wirkctoffzubereitungen in Gläser und setzt anschließend 20 Mückenlarven (L4) (Aedes aegypti) in jedes Glas ein.
Nach der gewünschten Zeit wird die Abtötung in % bestimmt. Dabei bedeutet 100 X, daß alle Tiere abgetötet wurden; 0 % bedeutet, daß keine Tiere abgetötet wurden.

The subject of experiment [5] is Musca domestica-tmultiresistent) Maden. Kind of experiment: Fly maggot development inhibition test. Type of experiment: in vivo. Conditions: Musca domestica maggots on treated filter paper, 14 days; compared with the prior art; figures not given. How it is done:
Fliegenmaden-Entwicklungshommungstest Testtiere: Musca domestica-tmultiresistent) Maden Lösungsmittel: Aceton
2 Gewichtsteile Wirkstoff werden in 1 000 Volumenteilen Lösungsmittel aufgenommen. Die so erhaltene Lösung wird mit weiteren Lösungsmitteln auf die gewünschten Konzentrationen verdünnt.
2,5 ml Wirkstofflösung werden in eine Petrischale pipettiert. Auf dem Boden der Petrischale befindet sich ein Filterpapier mit einem Durchmesser von etwa 9,5 cm. Die Petrischale bleibt so lange offen stehen, bis das Lösungsmittel vollständig verdunstet ist. Je nach Konzentration der Wirkstofflösung ist die Menge Wirkstoff pro m^2 Filterpapier verschieden hoch. Anschließend gibt man etwa 25 Testtiere in die Petrischale und bedeckt sie mit einem Glasdeckel.
14 Tage nach Ansetzen der Versuche wird die Zahl der geschlüpften Fliegen kontrolliert. Bestimmt wird der X-Satz der Schlüpfhemmung im Vergleich zur unbehandelten Kontrolle.

Experiment [6] deals with Lucilia cuprina res.-Larven. Kind of experiment: Test with resistant Lucilia cuprina larvae. Format: in vivo. Conditions: horse meat, after 24 hours, compared with the prior art, figures not given. From the text:
Test mit Lucilia cuprina resistent-Larven
• Emulgator: 35 Gewichtsteile Ethylenglykolmonomethylether • 35 Gewichtsteile Nonylphenolpolyglykolether
Zur Herstellung einer zweckmäßigen Wirkstoffzubereitung vermischt man drei Gewichtsteile Wirkstoff mit sieben Gewichtsteilen des oben angegebenen Gemisches und verdünnt das so erhaltene Konzentrat mit Wasser auf die jeweils gewünschte Konzentration.
Etwa 20 Lucilia cuprina res.-Larven werden in ein Teströhrchen gebracht, welches ca. 1 cm^3 Pferdefleisch und O,5 ml der Wirkstoffzubereitung enthält. Nach 24 Stunden wird der Abtötungsgrad bestimmt.

As to `CN1C(=O)C(C(=O)Nc2ccc(SC(F)(F)F)cc2)C(=O)N(C)P1(=O)Oc1cccc(Cl)c1` (stereo not drawn) [Beispiel 37], the minimal effective concentration in experiment [1] is 10 µg/mL.

`CN1C(=O)C(C(=O)Nc2ccc(SC(F)(F)F)cc2)C(=O)N(C)P1(=O)Oc1ccccc1` (stereo not drawn) [Beispiel 10]: the minimal effective concentration in experiment [1] was 10 µg/mL. Further, the Abtötung in % result in experiment [2], in experiment [3] and in experiment [4] was “überlegene Wirksamkeit gegenüber dem Stand der Technik” each time.

Take `CN1C(=O)C(C(=O)Nc2ccc(OC(F)(F)F)cc2)C(=O)N(C)P1(=S)Oc1ccc(Cl)cc1` (stereo not drawn) [Beispiel 30]: in experiment [1], the minimal effective concentration was 10 µg/mL. The Abtötung in % entry in experiment [2] is “überlegene Wirksamkeit gegenüber dem Stand der Technik”. Moreover, the “X-Satz der Schlüpfhemmung im Vergleich zur unbehandelten Kontrolle” value in experiment [5] was “überlegene Wirksamkeit gegenüber dem Stand der Technik”.

With `CCN1C(=O)C(C(=O)Nc2ccc(Cl)c(C(F)(F)F)c2)C(=O)N(C)P1(=O)Oc1cccc(Cl)c1` (stereo not drawn) [Beispiel 57], the minimal effective concentration in experiment [1] stood at 10 µg/mL.

Take `CC(C)N1C(=O)C(C(=O)Nc2ccc(SC(F)(F)F)cc2)C(=O)N(C)P1(=O)Oc1cccc(Cl)c1` (stereo not drawn) [Beispiel 42]: the minimal effective concentration in experiment [1] turned out to be 10 µg/mL.

With `CN1C(=O)C(C(=O)Nc2ccc(OC(F)(F)F)cc2)C(=O)N(C)P1(=O)Oc1ccc(Cl)cc1` (stereo not drawn) [Beispiel 17], the minimal effective concentration in experiment [1] was 10 µg/mL. In experiment [2], the Abtötung in % result is “überlegene Wirksamkeit gegenüber dem Stand der Technik”.

In the case of `CCN1C(=O)C(C(=O)Nc2ccc(C(F)(F)F)c(Cl)c2)C(=O)N(C)P1(=O)Oc1cccc(Cl)c1` (stereo not drawn) [Beispiel 55], the minimal effective concentration in experiment [1] came to 10 µg/mL.

With `CN1C(=O)C(C(=O)Nc2ccccc2SC(F)(F)F)C(=O)N(C)P1(=O)Oc1ccccc1` (stereo not drawn) [Beispiel 11], the minimal effective concentration in experiment [1] was determined as 100 µg/mL.

For `COc1ccc(NC(=O)C2C(=O)N(C)P(=O)(Oc3ccc(C)cc3)N(C)C2=O)cc1` (stereo not drawn) [Beispiel 20], in experiment [1], the minimal effective concentration turned out to be 10 µg/mL.

As to `CN1C(=O)C(C(=O)Nc2ccc(OC(F)(F)C(F)F)cc2)C(=O)N(C)P1(=O)Oc1ccccc1` (stereo not drawn) [Beispiel 15], the minimal effective concentration in experiment [1] was 10 µg/mL. The Abtötung in % entry in experiment [3] is “überlegene Wirksamkeit gegenüber dem Stand der Technik”.

In the case of `CN1C(=O)C(C(=O)Nc2ccc(SC(F)(F)F)cc2)C(=O)N(c2ccccc2)P1(=O)Oc1ccccc1` (stereo not drawn) [Beispiel 44], the minimal effective concentration in experiment [1] came to 10 µg/mL.

The compound `CN1C(=O)C(C(=O)Nc2ccc(S(=O)(=O)C(F)(F)F)cc2)C(=O)N(C)P1(=O)Oc1ccc(Cl)cc1` (stereo not drawn) [Beispiel 26] came in with a Dosis effectiva in experiment [1] of 100 mg/L. Besides, in experiment [6], the Abtötungsgrad entry is “überlegene Wirkung gegenüber dem Stand der Technik”. For the same compound, the Abtötung in % entry in experiment [4] is given as “überlegene Wirksamkeit gegenüber dem Stand der Technik”. Also, the “X-Satz der Schlüpfhemmung im Vergleich zur unbehandelten Kontrolle” value in experiment [5] is “überlegene Wirksamkeit gegenüber dem Stand der Technik”.

With `COc1ccc(NC(=O)C2C(=O)N(C)P(=O)(Oc3ccc(OC)cc3)N(C)C2=O)cc1` (stereo not drawn) [Beispiel 19], the minimal effective concentration in experiment [1] was determined as 100 µg/mL.

As to `CN1C(=O)C(C(=O)Nc2ccc(OC(F)(F)F)cc2)C(=O)N(C)P1(=O)Oc1cccc(Cl)c1` (stereo not drawn) [Beispiel 38], the minimal effective concentration in experiment [1] was found to be 10 µg/mL.

As for `CC(C)N1C(=O)C(C(=O)Nc2ccc(SC(F)(F)F)c(Cl)c2)C(=O)N(C)P1(=O)Oc1cccc(Cl)c1` (stereo not drawn) [Beispiel 64], in experiment [1], the minimal effective concentration turned out to be 10 µg/mL.

`CC(C)N1C(=O)C(C(=S)Nc2ccccc2)C(=O)N(C)P1(=O)Oc1cccc(Cl)c1` (stereo not drawn) [Beispiel 62]: the minimal effective concentration in experiment [1] was 100 µg/mL.

Take `CCN1C(=O)C(C(=O)Nc2ccc(C(F)(F)F)cc2C(F)(F)F)C(=O)N(C)P1(=O)Oc1cccc(Cl)c1` (stereo not drawn) [Beispiel 56]: the minimal effective concentration in experiment [1] came out at 10 µg/mL.

`CCN1C(=O)C(C(=O)Nc2ccc(C(F)(F)F)c(C(F)(F)F)c2)C(=O)N(C)P1(=O)Oc1cccc(Cl)c1` (stereo not drawn) [Beispiel 61]: the minimal effective concentration in experiment [1] was 10 µg/mL.

`CN1C(=O)C(C(=O)Nc2ccc(S(=O)(=O)C(F)(F)F)cc2)C(=O)N(C)P1(=O)Oc1ccccc1` (stereo not drawn) [Beispiel 13]: the minimal effective concentration in experiment [1] came to 10 µg/mL.

Turning to `CN1C(=O)C(C(=O)Nc2ccc([N+](=O)[O-])cc2)C(=O)N(C)P1(=O)Oc1ccc([N+](=O)[O-])cc1` (stereo not drawn) [Beispiel 18], the minimal effective concentration in experiment [1] was determined as 100 µg/mL.

Consider `CC(C)N1C(=O)C(C(=O)Nc2ccc(C(F)(F)F)c(Cl)c2)C(=O)N(C)P1(=O)Oc1cccc(Cl)c1` (stereo not drawn) [Beispiel 41], for which the minimal effective concentration in experiment [1] worked out at 10 µg/mL. Further, in experiment [6], the Abtötungsgrad entry is “überlegene Wirkung gegenüber dem Stand der Technik”.

Turning to `CCN1C(=O)C(C(=O)Nc2ccc(OC(F)(F)F)cc2)C(=O)N(C)P1(=O)Oc1cccc(Cl)c1` (stereo not drawn) [Beispiel 59], the minimal effective concentration in experiment [1] was found to be 10 µg/mL.

`CN1C(=O)C(C(=O)Nc2ccc([N+](=O)[O-])cc2)C(=O)N(C)P1(=O)Oc1ccc(Cl)cc1` (stereo not drawn) [Beispiel 4]: in experiment [1], the minimal effective concentration was determined as 10 µg/mL.

For the compound `CN1C(=O)C(C(=O)Nc2ccc(SC(F)(F)F)cc2)C(=O)N(C)P1(=S)Oc1ccccc1` (stereo not drawn) [Beispiel 33], the minimal effective concentration in experiment [1] was determined as 10 µg/mL. Also, the Abtötungsgrad result in experiment [6] was “überlegene Wirkung gegenüber dem Stand der Technik”.

As to `CN1C(=O)C(C(=O)Nc2ccc(Cl)c(C(F)(F)F)c2)C(=O)N(C)P1(=S)Oc1ccc(Cl)cc1` (stereo not drawn) [Beispiel 6], in experiment [1], the minimal effective concentration worked out at 10 µg/mL. In experiment [4], the Abtötung in % result is given as “überlegene Wirksamkeit gegenüber dem Stand der Technik”. For the same compound, in experiment [5], the “X-Satz der Schlüpfhemmung im Vergleich zur unbehandelten Kontrolle” value was “überlegene Wirksamkeit gegenüber dem Stand der Technik”.

On to `CC(C)N1C(=O)C(C(=O)Nc2ccc(C(F)(F)F)cc2C(F)(F)F)C(=O)N(Cc2ccccc2)P1(=O)Oc1cccc(Cl)c1` (stereo not drawn) [Beispiel 51], for which the minimal effective concentration in experiment [1] is 100 µg/mL.

`CCN1C(=O)C(C(=O)Nc2ccc(Oc3ccc(C(F)(F)F)cc3)cc2)C(=O)N(C)P1(=O)Oc1cccc(Cl)c1` (stereo not drawn) [Beispiel 46]: the minimal effective concentration in experiment [1] was 10 µg/mL.

Regarding `Cc1cccc(OP2(=O)N(C)C(=O)C(C(=O)Nc3ccc(SC(F)(F)F)cc3)C(=O)N2C(C)C)c1` (stereo not drawn) [Beispiel 54], the minimal effective concentration in experiment [1] is 10 µg/mL.

Consider `CCN1C(=O)C(C(=O)Nc2ccc(SC(F)(F)F)cc2)C(=O)N(C)P1(=O)Oc1cccc(Cl)c1` (stereo not drawn) [Beispiel 58], for which the minimal effective concentration in experiment [1] came to 10 µg/mL.

In the case of `Cc1cccc(OP2(=O)N(C)C(=O)C(C(=O)Nc3ccc(Cl)c(C(F)(F)F)c3)C(=O)N2C(C)C)c1` (stereo not drawn) [Beispiel 65], the minimal effective concentration in experiment [1] amounted to 10 µg/mL.

For the compound `CN1C(=O)C(C(=O)Nc2ccc(SC(F)(F)F)cc2)C(=O)N(C)P1(=S)Oc1ccc(Cl)cc1` (stereo not drawn) [Beispiel 34], the minimal effective concentration in experiment [1] was determined as 100 µg/mL. For the same compound, in experiment [2], the Abtötung in % entry is on record as “überlegene Wirksamkeit gegenüber dem Stand der Technik”. Moreover, the Abtötungsgrad result in experiment [6] is listed as “überlegene Wirkung gegenüber dem Stand der Technik”.

As for `CN1C(=O)C(C(=O)Nc2ccc(S(=O)(=O)C(F)(F)F)cc2)C(=O)N(C)P1(=O)Oc1ccc(Cl)cc1` (stereo not drawn) [Beispiel 5], the Dosis effectiva in experiment [1] stood at 10 mg/L.

These data come from patent EP0216105A1, “Diazaphosphorines, process for their preparation and their use as pesticide” (priority 1985, dated 1987).
